The record followed here is patent publication US6855730B2, “3-methylidenyl-2-indolinone modulators of protein kinase” (Sugen, Inc., priority 1998, dated 2005).

The structures appear in SMILES notation. Read-outs that look alike come from different tables or passages of the source.

Test [1] addresses T1, PDGFR-β (Homo sapiens, UniProt P09619).
T1 construct: host or cells: NIH 3T3
The test can be described thus: Biochemical PDGFR assay (ELISA, PDGFR-β expressing NIH 3T3 cell lysate). The settings on record: read-out: bio PDGF IC50. The gist of the method: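 Phosphorylation was read by ELISA (anti-phosphotyrosine serum, peroxidase secondary, ABTS at 410 nm) after a 30 min room-temperature reaction with 20 μM ATP, EDTA-stopped. Kinase was lysate-derived PDGFR-β (NIH 3T3) immobilised via 28D4C10 antibody, compound added 30 min before ATP.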

The target in test [2] is Myc-GyrB-FGFR fusion protein (Homo sapiens, UniProt P11362). The test can be described thus: Biochemical FGFR assay (ELISA).
Sequence of Myc-GyrB-FGFR fusion protein (P11362 478-767 limits assumed): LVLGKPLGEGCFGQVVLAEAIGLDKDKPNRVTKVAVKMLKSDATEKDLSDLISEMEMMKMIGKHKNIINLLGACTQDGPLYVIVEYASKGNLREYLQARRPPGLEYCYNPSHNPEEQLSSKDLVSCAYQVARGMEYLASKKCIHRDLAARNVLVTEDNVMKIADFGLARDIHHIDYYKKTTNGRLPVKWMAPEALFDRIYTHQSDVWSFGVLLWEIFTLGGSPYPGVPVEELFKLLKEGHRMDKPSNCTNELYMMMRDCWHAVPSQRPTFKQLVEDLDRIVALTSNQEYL

T1 sequence (P09619 33-1106): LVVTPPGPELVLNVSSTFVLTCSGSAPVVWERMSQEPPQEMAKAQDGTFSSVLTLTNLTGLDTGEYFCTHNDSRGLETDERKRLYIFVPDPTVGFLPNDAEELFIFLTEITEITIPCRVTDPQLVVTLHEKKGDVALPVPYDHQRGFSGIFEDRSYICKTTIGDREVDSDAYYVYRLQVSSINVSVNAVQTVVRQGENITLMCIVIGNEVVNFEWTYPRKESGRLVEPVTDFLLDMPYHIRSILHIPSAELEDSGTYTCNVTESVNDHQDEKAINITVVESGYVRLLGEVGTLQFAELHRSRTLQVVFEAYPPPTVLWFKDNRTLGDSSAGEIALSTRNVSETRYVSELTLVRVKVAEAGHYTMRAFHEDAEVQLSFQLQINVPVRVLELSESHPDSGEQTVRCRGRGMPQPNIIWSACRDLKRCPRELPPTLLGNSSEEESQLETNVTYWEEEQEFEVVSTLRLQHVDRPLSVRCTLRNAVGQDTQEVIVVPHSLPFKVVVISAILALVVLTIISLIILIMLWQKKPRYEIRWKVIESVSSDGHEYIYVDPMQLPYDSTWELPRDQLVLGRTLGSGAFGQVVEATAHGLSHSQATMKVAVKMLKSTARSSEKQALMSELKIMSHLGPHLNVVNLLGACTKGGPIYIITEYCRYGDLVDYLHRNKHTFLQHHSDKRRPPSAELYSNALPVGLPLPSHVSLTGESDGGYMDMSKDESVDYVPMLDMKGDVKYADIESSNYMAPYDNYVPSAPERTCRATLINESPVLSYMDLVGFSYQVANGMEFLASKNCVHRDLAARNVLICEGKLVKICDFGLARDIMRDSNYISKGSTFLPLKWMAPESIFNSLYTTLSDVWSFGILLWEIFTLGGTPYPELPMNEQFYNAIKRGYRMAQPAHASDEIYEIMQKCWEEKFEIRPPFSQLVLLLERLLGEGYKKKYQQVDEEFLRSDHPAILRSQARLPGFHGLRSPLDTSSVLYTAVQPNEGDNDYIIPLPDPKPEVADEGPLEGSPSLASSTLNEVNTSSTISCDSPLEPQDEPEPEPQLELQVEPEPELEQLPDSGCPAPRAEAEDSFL

As for `CNC(=O)CCc1c(/C=C2\C(=O)Nc3ccccc32)[nH]c2c1CCCC2` [Example 201, N-Methyl-3-[2-(2-oxo-1,2-dihydroindol-3-ylidenemethyl)-4,5,6,7-tetrahydro-1H-indol-3-yl]-propionamide], the IC50 in test [1] came out at 1730 nM.

For `O=C1Nc2ccc(N=Cc3cc4ccccc4[nH]3)cc2C1=Cc1cc2ccccc2[nH]1` [Example 171, 3-(1H-indol-2-ylmethylene)-5-[(1H-indol-2-ylmethylene)-amino]-1,3-dihydroindol-2-one], the IC50 in test [1] was 68600 nM; in test [2] (read-out: bio fgfR1 IC50), more than 20000 nM.

For `O=C(O)CCc1c(/C=C2\C(=O)Nc3ncccc32)[nH]c2c1CCCC2` [Example 203, 3-[2-(2-Oxo-1,2-dihydropyrrolo[2,3-b]pyridin-3-ylidenemethyl)-4,5,6,7-tetrahydro-1H-indol-3-yl]-propionic acid], the IC50 in test [1] turned out to be 150 nM; in test [2] (read-out: bio fgfR1 IC50), 2270 nM.

Turning to `O=C(CCc1c(/C=C2\C(=O)Nc3ccccc32)[nH]c2c1CCCC2)NCCN1CCOCC1` [Example 202, N-(2-Morpholin-4-ylethyl)-3-[2-(2-oxo-1,2-dihydroindol-3-ylidenemethyl)-4,5,6,7-tetrahydro-1H-indol-3-yl]-propionamide], the IC50 in test [1] came out at 9580 nM.

Turning to `COc1ccc2c(c1)NC(=O)/C2=C\c1[nH]c2c(c1CCC(=O)O)CCCC2` [Example 196, 3-[2-(6-Methoxy-2-oxo-1,2-dihydroindol-3-ylidenemethyl)-4,5,6,7-tetrahydro-1H-indol-3-yl]-propionic acid], the IC50 was 33700 nM in test [1] and 50 nM in test [2] (read-out: bio fgfR1 IC50).

On to `O=C(O)CCc1c(/C=C2\C(=O)Nc3cc(Cl)ccc32)[nH]c2c1CCCC2` [Example 195, 3-[2-(6-Chloro-2-oxo-1,2-dihydroindol-3-ylidenemethyl)-4,5,6,7-tetrahydro-1H-indol-3-yl]-propionic acid], for which the IC50 in test [1] was 2040 nM; in test [2] (read-out: bio fgfR1 IC50), 20 nM.

Consider `O=C(O)CCc1c(/C=C2\C(=O)Nc3ccc(Br)cc32)[nH]c2c1CCCC2` [Example 192, 3-[2-(5-Bromo-2-oxo-1,2-dihydroindol-3-ylidenemethyl)-4,5,6,7-tetrahydro-1H-indol-3yl]-propionic acid], for which the values for the IC50 in test [1] and in test [2] (read-out: bio fgfR1 IC50) were 4 nM and 1810 nM, respectively.

`Cc1cccc2c1/C(=C/c1[nH]c3c(c1CCC(=O)O)CCCC3)C(=O)N2` [Example 193, 3-[2-(4-Methyl-2-oxo-1,2-dihydroindol-3-ylidenemethyl)-4,5,6,7-tetrahydro-1H-indol-3-yl]-propionic acid]: the IC50 in test [1] is 44600 nM; in test [2] (read-out: bio fgfR1 IC50), 20 nM.

Take `Cc1c(/C=C2\C(=O)Nc3ccc(N)cc32)[nH]c2ccccc12` [Example 180, 5-Amino-3-(3-methyl-1H-indol-2-ylmethylene)-1,3-dihydroindol-2-one]: the IC50 in test [1] came out at 1110 nM; in test [2] (read-out: bio fgfR1 IC50), 5420 nM.

In the case of `COc1cccc(-c2ccc3c(c2)NC(=O)/C3=C\c2[nH]cc(C)c2CCC(=O)O)c1` [Example 223, 3-{2-[6-(3-Methoxyphenyl)-2-oxo-1,2-dihydro-indol-3-ylidenemethyl]-4-methyl-1H-pyrrol-3-yl}-propionic acid], the IC50 in test [1] amounted to 781 nM; in test [2] (read-out: bio fgfR1 IC50), 1220 nM.

`COc1cccc(-c2ccc3c(c2)NC(=O)/C3=C\c2[nH]c3c(c2CCC(=O)O)CCCC3)c1` [Example 204, 3-{2-[6-(3-Methoxyphenyl)-2-oxo-1,2-dihydro-indol-3-ylidenemethyl]-4,5,6,7-tetrahydro-1H-indol-3-yl}-propionic acid]: the values for the IC50 in test [1] and in test [2] (read-out: bio fgfR1 IC50) were 680 nM and 590 nM, respectively.

Take `CNS(=O)(=O)c1ccc2c(c1)/C(=C/c1cc3ccccc3[nH]1)C(=O)N2` [Example 173, 3-(1H-Indol-2-ylmethylene)-2-oxo-2,3-dihydro-1H-indole-5-sulfonic acid methylamide]: the IC50 in test [1] was determined as 69100 nM; in test [2] (read-out: bio fgfR1 IC50) it was 290 nM.

As to `O=C1Nc2ccc(C(=O)O)cc2/C1=C/c1ccc2[nH]ccc2c1` [Example 177, 3-(1H-Indol-5-ylmethylene)-2-oxo-2,3-dihydro-1H-indole-5-carboxylic acid], the values for the IC50 in test [1] and in test [2] (read-out: bio fgfR1 IC50) were more than 100000 nM and 1600 nM, respectively.

Regarding `CCOc1cccc(-c2ccc3c(c2)NC(=O)/C3=C\c2[nH]cc(C)c2CCC(=O)O)c1` [Example 224, 3-{2-[6-(3-Ethoxyphenyl)-2-oxo-1,2-dihydro-indol-3-ylidenemethyl]-4-methyl-1H-pyrrol-3-yl}-propionic acid], the IC50 came to 2380 nM in test [1] and 4240 nM in test [2] (read-out: bio fgfR1 IC50).

Take `NS(=O)(=O)c1ccc2c(c1)/C(=C/c1c[nH]c3ccccc13)C(=O)N2` [Example 172, 3-(1H-Indol-3-ylmethylene)-2-oxo-2,3-dihydro-1H-indole-5-sulfonic acid amide]: the IC50 amounted to 89400 nM in test [1] and 280 nM in test [2] (read-out: bio fgfR1 IC50).

As for `COc1c(C(C)C)cc(/C=C2/C(=O)Nc3ccc(Cl)cc32)cc1C(C)C` [Example 2, 5-Chloro-3-(3,5-diisopropyl-4-methoxybenzylidene)-1,3-dihydroindol-2-one], the IC50 in test [1] was more than 100000 nM.

On to `Cc1ccc2c(c1)/C(=C/c1[nH]c3c(c1CCC(=O)O)CCCC3)C(=O)N2` [Example 194, 3-[2-(5-Methyl-2-oxo-1,2-dihydroindol-3-ylidenemethyl)-4,5,6,7-tetrahydro-1H-indol-3-yl]-propionic acid], for which the IC50 was found to be 81400 nM in test [1] and 40 nM in test [2] (read-out: bio fgfR1 IC50).

For the molecule `O=C1Nc2ccc(C(=O)O)cc2/C1=C/c1c[nH]c2ccccc12` [Example 174, 3-(1H-Indol-3-ylmethylene)-2-oxo-2,3-dihydro-1H-indole-5-carboxylic acid], the IC50 in test [1] came to 2500 nM; in test [2] (read-out: bio fgfR1 IC50) it was 410 nM.

Regarding `COc1ccc2c(c1)NC(=O)/C2=C\c1[nH]cc(C)c1CCC(=O)O` [Example 217, 3-[2-(6-Methoxy-2-oxo-1,2-dihydroindol-3-ylidenemethyl)-4-methyl-1H-pyrrol-3-yl]-propionic acid], the half-inhibitory concentration (IC50) in test [1] was 210 nM.

For the molecule `Cc1c[nH]c(/C=C2\C(=O)Nc3ccccc32)c1CCC(=O)O` [Example 215, 3-[4-Methyl-2-(2-oxo-1,2-dihydroindol-3-ylidenemethyl)-1H-pyrrol-3-yl]-propionic acid], the IC50 came out at 500 nM in test [1] and 70 nM in test [2] (bio fgfR1 IC50).

Turning to `Cc1c[nH]c(/C=C2\C(=O)Nc3ccc(Cl)cc32)c1CCC(=O)O` [Example 216, 3-[2-(5-Chloro-2-oxo-1,2-dihydroindol-3-ylidenemethyl)-4-methyl-1H-pyrrol-3-yl]-propionic acid], the IC50 in test [1] was 220 nM.

Turning to `COc1ccc(-c2ccc3c(c2)NC(=O)/C3=C\c2[nH]c3c(c2CCC(=O)O)CCCC3)cc1` [Example 205, 3-{2-[6-(4-Methoxyphenyl)-2-oxo-1,2-dihydro-indol-3-ylidenemethyl]-4,5,6,7-tetrahydro-1H-indol-3-yl}-propionic acid], the half-inhibitory concentration (IC50) in test [1] stood at 5430 nM; in test [2] (read-out: bio fgfR1 IC50) it was 2020 nM.

In the case of `Cc1c[nH]c(/C=C2\C(=O)Nc3cccc(C)c32)c1CCC(=O)O` [Example 218, 3-[2-(4-Methyl-2-oxo-1,2-dihydroindol-3-ylidenemethyl)-4-methyl-1H-pyrrol-3-yl]-propionic acid], the IC50 in test [1] stood at 2110 nM.

As for `O=C1Nc2ccccc2/C1=C/c1[nH]c2c(c1CCC(=O)N1CCOCC1)CCCC2` [Example 200, 3-[3-(3-Morpholin-4-yl-3-oxopropyl)-4,5,6,7-tetrahydro-1H-indol-2-ylmethylene]-1,3-dihydroindol-2-one], the IC50 in test [1] is 11800 nM.

For `CN(C)CCCc1c(/C=C2\C(=O)Nc3ccccc32)[nH]c2c1CCCC2` [Example 198, 3-[3-(3-Dimethylaminopropyl)-4,5,6,7-tetrahydro-1H-indol-2-ylmethylene]-1,3-dihydroindol-2-one], in test [1], the IC50 is 40 nM.

For the molecule `CC(C)NS(=O)(=O)c1ccc2c(c1)C(=Cc1[nH]c3c(c1CCC(=O)O)CCCC3)C(=O)N2` [Example 208, 3-[2-(5-Isopropylaminosulfonyl-2-oxo-1,2-dihydroindol-3-ylidenemethyl)-4,5,6,7-tetrahydro-1H-indol-3-yl]-propionic acid], the IC50 in test [1] came out at 23400 nM.

On to `CN(C)C(=O)CCc1c(/C=C2\C(=O)Nc3ccccc32)[nH]c2c1CCCC2` [Example 197, N,N-Dimethyl-3-[2-(2-oxo-1,2-dihydroindol-3-ylidenemethyl)-4,5,6,7-tetrahydro-1H-indol-3-yl]-propionamide], for which the IC50 in test [1] is more than 100000 nM.

On to `Cc1c[nH]c(C=C2C(=O)Nc3cc(Cl)ccc32)c1CCC(=O)O` [Example 219, 3-[2-(6-Chloro-2-oxo-1,2-dihydroindol-3-ylidenemethyl)-4-methyl-1H-pyrrol-3-yl]-propionic acid], for which, in test [1], the IC50 amounted to 470 nM.

`COc1ccc2c(c1)/C(=C/c1[nH]cc(C)c1CCC(=O)O)C(=O)N2` [Example 222, 3-[2-(5-Methoxy-2-oxo-1,2-dihydroindol-3-ylidenemethyl)-4-methyl-1H-pyrrol-3-yl]-propionic acid]: the IC50 in test [1] is 3750 nM.

For `Cc1c[nH]c(/C=C2\C(=O)Nc3ccc(Br)cc32)c1CCC(=O)O` [Example 220, 3-[2-(5-Bromo-2-oxo-1,2-dihydroindol-3-ylidenemethyl)-4-methyl-1H-pyrrol-3-yl]-propionic acid], the IC50 in test [1] was 620 nM.

On to `NC(=O)CCc1c(/C=C2\C(=O)Nc3ccccc32)[nH]c2c1CCCC2` [Example 199, 3-[2-(2-Oxo-1,2-dihydroindol-3-ylidenemethyl)-4,5,6,7-tetrahydro-1H-indol-3-yl]-propionamide], for which the IC50 in test [1] is 890 nM.

Take `COc1c(C(C)C)cc(/C=C2/C(=O)Nc3ccccc32)cc1C(C)C` [Example 1, 3-(3,5-Diisopropyl-4-methoxybenzylidene)-1,3-dihydroindol-2-one]: in test [1], the IC50 was more than 100000 nM.
